In patent US10501473B2, “Fused heterocyclic ring compounds and method of treating retinal disease using same” (THE INDUSTRY & ACADEMIC COOPERATION IN CHUNGNAM NATIONAL …, priority 2014, dated 2019):
Several values for one entry are separate records, joined by “and”; a condition that tells them apart may be missing. Equal entries are not always repeated.

Experiments:
[1] = tested on: RGC-5 (rat ganglion cell); assay: Retinal nerve protection under oxygen-glucose deprivation (OGD), LDH assay; assay type: cell-based; settings: RGC-5, OGD 15 hours, compound 20 μM, DMSO control = 100%
Procedure, shortened: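 RGC-5 cells switched to glucose-free DMEM with compound (20 μM) or 0.1% DMSO and held 15 h at 37° C under anaerobic gas (10% H2, 5% CO2, 85% N2). Cell death from released LDH (formazan, 490 nm), scaled with OGD control as 100% and normal-medium cells as 0%; triplicate wells, experiments in triplicate.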

[2] = biological target: T1, RIPK1 (receptor-interacting serine/threonine-protein kinase 1) (Homo sapiens (Human), UniProt Q13546); assay: IC50 to RIPK1, immuno-precipitated enzyme with [32P]γ-ATP; assay type: biochemical; settings: 10-0.05 μM, 100 μM ATP
Description: RIPK1 enzyme immuno-precipitated in HEK293 (Human Embryonic Kidney 293) cell lysate was used as a kinase. The experiment was performed according to the method described in Cell. 12; 137(6):1112-23(2009).
RIPK1 protein was over-expressed in HEK293 cell line, to which lysis buffer (50 mM Tris-Cl [pH 8.0], 150 mM NaCl, 1 mM EDTA, 1% NP-40, 0.4 mM phenylmethylsulfonyl fluoride (PMSF)) was added for cell lysis. Centrifugation was performed at 13,000 rpm for 10 minutes to separate the supernatant. RIPK1 monoclonal antibody (610459, BD Bioscience) and A/G agarose beads (sc-2003, Santa Cruz Biotechnology) were added thereto, followed by immuno-precipitation in a 4° C. rotator for 12 hours.
The compounds of examples of the invention were diluted at the different concentrations of 10 μM˜0.05 μM (10, 5, 1, 0.5, 0.1, 0.05 uM) and mixed with the immuno-precipitated RIPK1 enzyme, followed by reaction in a 24° C. constant-temperature water bath for 15 minutes. Additional reaction was induced for 30 minutes at 30° C. after 100 μM of ATP and 10 μCi[^32P] γ-ATP were added thereto. The reaction mixture was washed with buffer once, to which protein loading buffer was added, followed by heating at 100° C. for 3 minutes. The reaction mixture was then loaded on 8% SDS-PAGE gel. Radioactive image of the phosphorylated RIPK1 was detected with FLA-7000 (GE healthcare). The image Quant TL program was used for the quantification. Based on the results, IC50 of the compound was calculated by using sigmaplot 10.0 program.

retina of rats = settings: retinal detachment; cited from earlier work
[3] = tested on: dry macular degeneration rat model; assay: Retinal cell protection by instillation, sodium iodate rat model, H&E staining; assay type: in vivo; settings: SI ip 50 mg/kg, eye drops 50 μl twice a day, FIG. 2
Description: From 3 days before the administration of sodium iodate (SI) to the 8-week-old dry macular degeneration rat model, the compound of the invention was instillated twice a day (50 μl/each eye drop instillation) and SI (ip, 50 mg/kg) was administered once. Additionally, the compound was instillated twice a day for 7 days. 7 days later, the eyeballs were extracted, followed by H&E staining to investigate retinal cell protection effect (n=3, 6 eyes). FIG. 1 is a schematic diagram illustrating the construction of the dry macular degeneration rat model and the eye drop instillation of the compounds of the invention.
The eyeballs were extracted from the dry macular degeneration rat model constructed by the same manner as described in FIG. 1, followed by histostaining.
To measure the survival rate (%) of retinal pigment epithelial cells, the eyeballs extracted from the experimental rats were fixed in 4% glutaraldehyde solution for 4 hours and embedded in paraffin. Tissue sections were prepared in 5 μm thickness, followed by H&E (Hematoxylin and Eosin) staining. Photomicrographs were taken of 2-3 different areas within the RPE (retinal pigment epithelium) layer on 100× optical microscope (Leica), and the number of stained cells was counted. The number of RPE cells in the normal rat group was regarded as 100%, based on which the survival rate was calculated.

[4] = Solubility in water of doxycycline forms; assay type: physicochemical
[5] = tested on: retinal degeneration rabbit model; assay: Drug efficacy by ERG (electroretinography) 1; assay type: in vivo; settings: for response compared to normal (100%) / Drug efficacy (%): ERG; for Wave ratio / Drug efficacy (%): SI model; for Wave ratio: ERG wave A after one week, eye drops 100 μl twice a day, Comparative Example 3 oral 10 mg/rabbit once a day, Normal = 1.00
Description: The normal rabbit was anesthetized, which was adapted for 20 minutes in a dark room. Retinal potential difference was measured by ERG equipment. Electroretinography is a method to observe the response of photoreceptor cells with two light intensities. Particularly, A and B waves were measured from 100 to 10000 mcd, and the retinal potential difference measured at 3000 mcd. Drug efficacy was evaluated by observing the photoreceptor cells, for which the stronger response to wave A was selected.
Evaluation of candidate substances for dry macular degeneration was performed using a retinal degeneration rabbit model. The compounds of Comparative Examples 2 and 3 were used as comparative compounds. […] The compound of Comparative Example 3 was orally administered once a day (10 mg/rabbit, dissolved in saline).

[6] = tested on: dry macular degeneration pig model; assay: Drug efficacy by fundoscopy; assay type: in vivo; settings: IAA 10 mg/kg iv, 7 days after induction, FIG. 13
Description: First, to construct a dry macular degeneration pig model, 10 mg/kg of iodoacetic acid (IAA) was dissolved in PBS (phosphate buffered saline) and injected intravenously to a mini pig (Yutacan Micropig). One week after the IAA administration, retinal degeneration was confirmed by retinal fundus photography and fluorescence (Experimental eye research 2012. 97, 137-147), and a schematic diagram illustrating the eye drop instillation of the compounds is shown in FIG. 12.
The eye drop instillation of the compounds of the invention was performed from a day before the IAA administration as shown in FIG. 12. 7 days after the induction of retinal degeneration in the pig, retinal fundus photographs were taken and the results are shown in FIG. 13.

[7] = tested on: dry macular degeneration pig model; assay: Drug efficacy by ERG (electroretinography) 2; assay type: in vivo
Description: The experiment was performed by the same manner as described in Experimental Example 10 except that a dry macular degeneration pig model was used instead of the dry macular degeneration rabbit model.

[8] = biological target: T1, RIPK1 (receptor-interacting serine/threonine-protein kinase 1); assay: RIPK1 inhibitory activity, autophosphorylation of immuno-precipitated RIPK1 with [32P]γ-ATP; assay type: biochemical; settings: compound 100 μM; remaining RIPK1 phosphorylation
Procedure, shortened: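 RIPK1 overexpressed in HEK293, immunoprecipitated, preincubated with compound 15 min at 24 °C in HEPES pH 7.6 kinase buffer with Mg2+/Mn2+. Autophosphorylation run 30 min at 30 °C with 100 μM ATP plus [32P]γ-ATP, resolved by SDS-PAGE and quantified by phosphorimaging.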

[9] = tested on: RGC-5 (rat ganglion cell-5); assay: Retinal neuron protection under necroptosis inducing (TCZ; TNFα+cycloheximide+zVAD) condition, LDH assay; assay type: cell-based; settings: RGC-5, TCZ 15 hours, compound 20 μM, DMSO control = 100%
Description: The following experiment was performed to evaluate the retinal neuron protection effect of the compounds of the invention under necroptosis inducing condition.
The retinal ganglion cell line RGC-5 (rat ganglion cell-5) was cultured in DMEM (Dulbecco's modified Eagle's medium) supplemented with 10% FBS (fetal bovine serum) and 1% penicillin/streptomycin. The cells were distributed in a 96-well plate at the density of 8×10^3 cells/well, followed by culture in a 37° C., CO2 incubator for 12 hours. The medium supplemented with TNFα (10 ng/ml), cycloheximide (10 μg/ml), and zVAD (10 μM) (TCZ) was treated with DMSO (0.1%) alone (control) or with the compounds of the invention (20 μM), followed by additional culture in a 37° C., CO2 incubator for 15 hours to induce cell death.
The level of cell death was measured by LDH (lactate dehydrogenase, Roche) assay. The level of the control LDH under TCZ condition was regarded as 100%, and the level of LDH in the cell group cultured in normal medium (10% FBS, DMEM) for the same time was used for the measurement of the relative rate of cell death. The compounds of examples of the invention were treated to wells, each compound for three wells, and then each experiment was performed in triplicate.

[10] = tested on: dry macular degeneration rabbit model; assay: Protection against retinal layer thickness reduction by instillation 2 (ONL thickness); assay type: in vivo; settings: FIG. 8
Description: The eyeballs were extracted from the dry macular degeneration rabbit model used in Experimental Example 7, and the thickness of ONL was measured.

T1 sequence (Q13546 whole entry, species assumed): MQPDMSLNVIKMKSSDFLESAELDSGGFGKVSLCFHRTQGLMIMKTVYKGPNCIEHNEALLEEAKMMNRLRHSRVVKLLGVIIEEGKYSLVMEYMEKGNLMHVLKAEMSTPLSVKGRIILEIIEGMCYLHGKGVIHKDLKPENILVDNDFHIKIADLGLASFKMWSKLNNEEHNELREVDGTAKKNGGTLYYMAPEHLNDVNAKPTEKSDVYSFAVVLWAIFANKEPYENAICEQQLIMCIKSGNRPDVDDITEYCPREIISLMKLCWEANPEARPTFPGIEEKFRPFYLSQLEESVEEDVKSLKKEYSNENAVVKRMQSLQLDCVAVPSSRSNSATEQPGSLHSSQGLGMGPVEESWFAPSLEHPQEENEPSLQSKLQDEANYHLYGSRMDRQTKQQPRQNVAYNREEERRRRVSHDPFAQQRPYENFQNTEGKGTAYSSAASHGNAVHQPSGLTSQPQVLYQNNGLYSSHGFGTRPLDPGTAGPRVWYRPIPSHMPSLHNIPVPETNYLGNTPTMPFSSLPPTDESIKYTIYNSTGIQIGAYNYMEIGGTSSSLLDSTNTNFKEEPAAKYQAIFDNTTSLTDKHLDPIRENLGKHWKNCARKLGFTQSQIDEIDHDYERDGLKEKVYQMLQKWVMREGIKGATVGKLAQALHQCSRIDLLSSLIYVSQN

| IC50 [2] [nM] | activity at 100 µM [8] [%] | SMILES | Death of retinal nerve cell (%) [1] | retina degeneration by histostaining [3] | Death of retinal nerve cell (%) [9] [%] | further results |
| --- | --- | --- | --- | --- | --- | --- |
| 360 | 3.5 ± 2.1 | O=C(c1cc2c(-c3ccc(F)cc3)cccc2s1)N1CCCC1 [Example 35, (4-(4-fluorophenyl)benzo[b]thiophene-2-yl)(pyrrolidine-1-yl)methanone] | 90.0 ± 3.3% |  | 89.2 ± 8.2 |  |
| 193 | 3.7 ± 2.6 | O=C(c1cc2c(-c3ccc(F)cc3)cccc2s1)N1CCOCC1 [Example 39, (4-(4-fluorophenyl)benzo[b]thiophene-2-yl)(morpholino)methanone] | 46.2 ± 0.8% | retina degeneration was not observed | 74.9 ± 9.1 | retinal layer thickness protection effect [10]: 70˜80% and 70-80% |
| 17.7 | 4 ± 2.8 | O=C(c1cc2c(-c3cccc(F)c3)cccc2s1)N1CCOCC1 [Example 36, (4-(3-fluorophenyl)benzo[b]thiophene-2-yl)(morpholino)methanone] | 58.0 ± 3.8% |  |  |  |
| 230 | 1.5 ± 0.7 | O=C(c1cc2c(-c3ccc(F)cc3F)cccc2s1)N1CCOCC1 [Example 63, (4-(2,4-difluorophenyl)benzo[b]thiophene-2-yl)(morpholino)methanone] | 48.3 ± 13.7% |  |  |  |

The remaining lines, values behind:

| SMILES | IC50 [2] [nM] | activity at 100 µM [8] [%] | Death of retinal nerve cell (%) [1] | retina degeneration by histostaining [3] | Death of retinal nerve cell (%) [9] [%] | further results |
| --- | --- | --- | --- | --- | --- | --- |
| CN1C(=O)C(Cc2c[nH]c3ccccc23)NC1=S (stereo not shown) [Comparative Example 1, 5-((1H-indole-3-yl)methyl)-3-methyl-2-thioxothioxoimidazolidine-4-one, reference compound] | 95.5 |  | 89.5% and 89.5 ± 10.5% | retina degeneration was not observed |  | phosphorylation of RIPK1 in the retina (retina of rats): phosphorylation was reduced; photoreceptor degeneration (retina of rats): photoreceptor degeneration was also protected |
| C[C@H]1c2cccc(O)c2C(=O)C2=C(O)[C@]3(O)C(=O)C(C(N)=O)=C(O)[C@@H](N(C)C)[C@@H]3[C@@H](O)[C@@H]21 [Comparative Example3-HC, doxycycline] |  |  |  |  |  | solubility in water ([4]; listed as HC): well dissolved in water; response compared to normal (100%) ([5]; FIG. 11, listed as 3-HC): 66.9%; response compared to normal (100%) ([5]; FIG. 11, listed as Comparative Example 3-HC): 66.9%; Wave ratio [5]: 0.67; Drug efficacy (%) ([5]; Normal = 100, Veh. = 0): 31%; Drug efficacy (%) ([5]; Normal = 100, Veh. = 0, listed as Comparative Example 3 (HC)): 31%; Drug efficacy (%) ([5]; Normal = 100, Veh. = 0, listed as Comparative Example 3-HC): 31%; retinal fundus photographs [6]: damaged areas (*) were observed; wave A response ([7]; ERG, FIG. 14 and 15): wave A response was reduced; Wave ratio ([7]; IAA model, ERG wave A, Normal = 1.00): 0.38; Drug efficacy (%) ([7]; IAA model, ERG, Normal = 100, Veh. = 0): 18% |
| CN1C(=O)NC(Cc2c[nH]c3c(Cl)cccc23)C1=O (stereo not shown) [Comparative Example 2, 5-((7-chloro-1H-indole-3-yl)methyl)-3-methylimidazolidine-2,4-dione, reference compound] |  |  | 73.5% and 73.5 ± 10.3% | retina degeneration was not observed |  |  |
| O=C(c1cc2c(-c3ccoc3)cccc2s1)N1CCOCC1 [Example 75, (4-(furan-3-yl)benzo[b]thiophene-2-yl)(morpholino)methanone] | 73.4 | 3.5 ± 3.5 | 41.7 ± 7.0% |  |  |  |
| C[C@H]1c2cccc(O)c2C(=O)C2=C(O)[C@]3(O)C(=O)C(C(N)=O)=C(O)[C@@H](N(C)C)[C@@H]3[C@@H](O)[C@@H]21 [Comparative Example3-MH, doxycycline] |  |  |  |  |  | solubility in water ([4]; listed as MH): not dissolved in water; response compared to normal (100%) ([5]; FIG. 11, listed as 3-MH): 74.1%; response compared to normal (100%) ([5]; FIG. 11, listed as Comparative Example 3-MH): 74.1%; Wave ratio [5]: 0.74; Drug efficacy (%) ([5]; Normal = 100, Veh. = 0): 46% |
| O=C(c1cc2c(-c3ccc(F)cc3)cccc2s1)N1CCCOCC1 [Example 52, (4-(4-fluorophenyl)benzo[b]thiophene-2-yl) (1,4-oxazepane-4-yl)methanone] | 8170 | 5.5 ± 4.9 | 52.8 ± 4.4% |  | 80.8 ± 2.8 |  |
